# Biological target: T1, his-galectin-3 (Homo sapiens, UniProt P17931)
# T1 construct: purchased Abcam
# Test: TR-FRET assay (in vitro galectin-3 binding inhibitory activity test)
# Settings: Table 1; compound at 20 μM; 60 nM his-galectin-3, 15 nM biotin-ASF; read-out: % Inhibitory activity (at 20 μM)
# Outline: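 Compound is premixed with his-galectin-3 (60 nM final), then biotin-ASF (15 nM), Tb anti-His antibody (2 nM) and streptavidin-d2 (20 nM) are added. After at least 3.5 hours at RT in HEPES/NaCl buffer with Tween 20 and BSA, TR-FRET is read at 615/665 nm. DMSO serves as the uninhibited control, ASF omission as background.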
# T1 sequence (P17931 whole entry): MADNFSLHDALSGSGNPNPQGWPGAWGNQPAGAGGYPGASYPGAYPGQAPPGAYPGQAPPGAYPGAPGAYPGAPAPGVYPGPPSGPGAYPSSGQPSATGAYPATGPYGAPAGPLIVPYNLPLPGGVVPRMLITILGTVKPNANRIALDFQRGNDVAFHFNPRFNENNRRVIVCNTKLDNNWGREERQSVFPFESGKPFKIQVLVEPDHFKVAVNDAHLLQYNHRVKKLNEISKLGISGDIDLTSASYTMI
row,inhibition at 20 µM,Compound
1,< 25%,"CC(=O)N[C@H]1C(O)O[C@H](CO)[C@@H](O[C@@H]2O[C@H](CO)[C@H](O)[C@H](O)[C@H]2O)[C@@H]1O (stereo partly drawn) [LacNAc, N-acetyl-D-lactosamine, reference compound]"

# Same assay, conditions: Table 2; compound at 20 μM; 60 nM his-galectin-3, 15 nM biotin-ASF; read-out: % Inhibitory activity (at 20 μM)
row,Compound,inhibition at 20 µM
1,"O=C(N[C@@H]1CCO[C@]12O[C@H](CO)[C@H](O)[C@H](n1cc(-c3cc(F)c(F)c(F)c3)cn1)[C@H]2O)c1cccc2ccc(Cl)cc12 [Compound A238, 7-chloro-N-((4R,5S,7R,8R,9S,10R)-8,10-dihydroxy-7-(hydroxymethyl)-9-(4-(3,4,5-trifluorophenyl)-1H-pyrazol-1-yl)-1,6-dioxaspiro[4.5]decan-4-yl)-1-naphthamide]",> 75%
2,"Cc1cc(C(=O)N[C@@H]2CCO[C@]23O[C@H](CO)[C@H](O)[C@H](n2cc(-c4cc(F)c(F)c(F)c4)cn2)[C@H]3O)c2cc(Cl)ccc2n1 [Compound A239, 6-chloro-N-((4R,5S,7R,8R,9S,10R)-8,10-dihydroxy-7-(hydroxymethyl)-9-(4-(3,4,5-trifluorophenyl)-1H-pyrazol-1-yl)-1,6-dioxaspiro[4.5]decan-4-yl)-2-methylquinoline-4-carboxamide]",> 75%
3,"Cc1ccc(C(=O)N[C@@H]2CCO[C@]23O[C@H](CO)[C@H](O)[C@H](n2cc(-c4cc(F)c(F)c(F)c4)nn2)[C@H]3O)c2ccccc12 [Compound A243, N-((4R,5S,7R,8R,9S,10R)-8,10-dihydroxy-7-(hydroxymethyl)-9-(4-(3,4,5-trifluorophenyl)-1H-1,2,3-triazol-1-yl)-1,6-dioxaspiro[4.5]decan-4-yl)-4-methyl-1-naphthamide]",> 75%
4,"O=C(N[C@@H]1CCO[C@]12O[C@H](CO)[C@H](O)[C@H](n1cc(-c3cc(F)c(F)c(F)c3)nn1)[C@H]2O)c1csc2cccc(Br)c12 [Compound A248, 4-bromo-N-((4R,5S,7R,8R,9S,10R)-8,10-dihydroxy-7-(hydroxymethyl)-9-(4-(3,4,5-trifluorophenyl)-1H-1,2,3-triazol-1-yl)-1,6-dioxaspiro[4.5]decan-4-yl)benzo[b]thiophene-3-carboxamide]",< 25%
5,"O=C(N[C@@H]1CCO[C@]12O[C@H](CO)[C@H](O)[C@H](n1cc(-c3cc(F)c(F)c(F)c3)nn1)[C@H]2O)c1csc2ccc(F)cc12 [Compound A249, N-((4R,5S,7R,8R,9S,10R)-8,10-dihydroxy-7-(hydroxymethyl)-9-(4-(3,4,5-trifluorophenyl)-1H-1,2,3-triazol-1-yl)-1,6-dioxaspiro[4.5]decan-4-yl)-5-fluorobenzo[b]thiophene-3-carboxamide]",> 75%
6,"O=C(N[C@@H]1CCO[C@]12O[C@H](CO)[C@H](O)[C@H](n1cc(-c3cc(F)c(F)c(F)c3)nn1)[C@H]2O)c1coc2cccc(Br)c12 [Compound A250, 4-bromo-N-((4R,5S,7R,8R,9S,10R)-8,10-dihydroxy-7-(hydroxymethyl)-9-(4-(3,4,5-trifluorophenyl)-1H-1,2,3-triazol-1-yl)-1,6-dioxaspiro[4.5]decan-4-yl)benzofuran-3-carboxamide]",> 75%
7,"O=C(N[C@@H]1CCO[C@]12O[C@H](CO)[C@H](O)[C@H](n1cc(-c3cc(F)c(F)c(F)c3)nn1)[C@H]2O)c1cc(=O)[nH]c2ccc(Br)cc12 [Compound A252, 6-bromo-N-((4R,5S,7R,8R,9S,10R)-8,10-dihydroxy-7-(hydroxymethyl)-9-(4-(3,4,5-trifluorophenyl)-1H-1,2,3-triazol-1-yl)-1,6-dioxaspiro[4.5]decan-4-yl)-2-oxo-1,2-dihydroquinoline-4-carboxamide]",> 75%
8,"O=C(N[C@@H]1CCO[C@]12O[C@H](CO)[C@H](O)[C@H](n1cc(-c3cc(F)c(F)c(F)c3)nn1)[C@H]2O)c1c[nH]c2cccc(Br)c12 [Compound A253, 4-bromo-N-((4R,5S,7R,8R,9S,10R)-8,10-dihydroxy-7-(hydroxymethyl)-9-(4-(3,4,5-trifluorophenyl)-1H-1,2,3-triazol-1-yl)-1,6-dioxaspiro[4.5]decan-4-yl)-1H-indole-3-carboxamide]",> 75%
9,"O=C(N[C@@H]1CCO[C@]12O[C@H](CO)[C@H](O)[C@H](n1cc(-c3cc(F)c(F)c(F)c3)nn1)[C@H]2O)c1cc(=O)[nH]c2ccccc12 [Compound A254, N-((4R,5S,7R,8R,9S,10R)-8,10-dihydroxy-7-(hydroxymethyl)-9-(4-(3,4,5-trifluorophenyl)-1H-1,2,3-triazol-1-yl)-1,6-dioxaspiro[4.5]decan-4-yl)-2-oxo-1,2-dihydroquinoline-4-carboxamide]",50 to 75%
10,"O=C(N[C@@H]1CCO[C@]12O[C@H](CO)[C@H](O)[C@H](n1cc(-c3cc(F)c(F)c(F)c3)nn1)[C@H]2O)c1c[nH]c2cccc(F)c12 [Compound A255, N-((4R,5S,7R,8R,9S,10R)-8,10-dihydroxy-7-(hydroxymethyl)-9-(4-(3,4,5-trifluorophenyl)-1H-1,2,3-triazol-1-yl)-1,6-dioxaspiro[4.5]decan-4-yl)-4-fluoro-1H-indole-3-carboxamide]",> 75%
11,"CO[C@@H]1[C@@H](n2cc(-c3cc(F)c(F)c(F)c3)nn2)[C@@H](O)[C@@H](CO)O[C@@]12CCCO2 [Compound A257, (5S,7R,8R,9S,10R)-7-(hydroxymethyl)-10-methoxy-9-(4-(3,4,5-trifluorophenyl)-1H-1,2,3-triazol-1-yl)-1,6-dioxaspiro[4.5]decan-8-ol]",25 to 50%

# Second part, the molecule after the results:
row,inhibition at 20 µM,Compound
1,50 to 75%,"Cc1ccc2ccccc2c1C(=O)N[C@@H]1CCO[C@]12O[C@H](CO)[C@H](O)[C@H](n1cc(-c3cc(F)c(F)c(F)c3)nn1)[C@H]2O [Compound A240, N-((4R,5S,7R,8R,9S,10R)-8,10-dihydroxy-7-(hydroxymethyl)-9-(4-(3,4,5-trifluorophenyl)-1H-1,2,3-triazol-1-yl)-1,6-dioxaspiro[4.5]decan-4-yl)-2-methyl-1-naphthamide]"
2,> 75%,"COc1cc(C(=O)N[C@@H]2CCO[C@]23O[C@H](CO)[C@H](O)[C@H](n2cc(-c4cc(F)c(F)c(F)c4)nn2)[C@H]3O)c2ccccc2c1 [Compound A241, N-((4R,5S,7R,8R,9S,10R)-8,10-dihydroxy-7-(hydroxymethyl)-9-(4-(3,4,5-trifluorophenyl)-1H-1,2,3-triazol-1-yl)-1,6-dioxaspiro[4.5]decan-4-yl)-3-methoxy-1-naphthamide]"
3,50 to 75%,"COc1ccc2ccccc2c1C(=O)N[C@@H]1CCO[C@]12O[C@H](CO)[C@H](O)[C@H](n1cc(-c3cc(F)c(F)c(F)c3)nn1)[C@H]2O [Compound A242, N-((4R,5S,7R,8R,9S,10R)-8,10-dihydroxy-7-(hydroxymethyl)-9-(4-(3,4,5-trifluorophenyl)-1H-1,2,3-triazol-1-yl)-1,6-dioxaspiro[4.5]decan-4-yl)-2-methoxy-1-naphthamide]"
4,50 to 75%,"O=C(N[C@@H]1CCO[C@]12O[C@H](CO)[C@H](O)[C@H](n1cc(-c3cc(F)c(F)c(F)c3)nn1)[C@H]2O)c1cccc2cccnc12 [Compound A244, N-((4R,5S,7R,8R,9S,10R)-8,10-dihydroxy-7-(hydroxymethyl)-9-(4-(3,4,5-trifluorophenyl)-1H-1,2,3-triazol-1-yl)-1,6-dioxaspiro[4.5]decan-4-yl)quinoline-8-carboxamide]"
5,> 75%,"Cc1cc(C(=O)N[C@@H]2CCO[C@]23O[C@H](CO)[C@H](O)[C@H](n2cc(-c4cc(F)c(F)c(F)c4)nn2)[C@H]3O)c2cccnc2c1 [Compound A245, N-((4R,5S,7R,8R,9S,10R)-8,10-dihydroxy-7-(hydroxymethyl)-9-(4-(3,4,5-trifluorophenyl)-1H-1,2,3-triazol-1-yl)-1,6-dioxaspiro[4.5]decan-4-yl)-7-methylquinoline-5-carboxamide]"
6,> 75%,"O=C(N[C@@H]1CCO[C@]12O[C@H](CO)[C@H](O)[C@H](n1cc(-c3cc(F)c(F)c(F)c3)nn1)[C@H]2O)c1cccc2ccncc12 [Compound A246, N-((4R,5S,7R,8R,9S,10R)-8,10-dihydroxy-7-(hydroxymethyl)-9-(4-(3,4,5-trifluorophenyl)-1H-1,2,3-triazol-1-yl)-1,6-dioxaspiro[4.5]decan-4-yl)isoquinoline-8-carboxamide]"
7,> 75%,"O=C(N[C@@H]1CCO[C@]12O[C@H](CO)[C@H](O)[C@H](n1cc(-c3cc(F)c(F)c(F)c3)nn1)[C@H]2O)c1cccc2cnccc12 [Compound A247, N-((4R,5S,7R,8R,9S,10R)-8,10-dihydroxy-7-(hydroxymethyl)-9-(4-(3,4,5-trifluorophenyl)-1H-1,2,3-triazol-1-yl)-1,6-dioxaspiro[4.5]decan-4-yl)isoquinoline-5-carboxamide]"
8,> 75%,"O=C(N[C@@H]1CCO[C@]12O[C@H](CO)[C@H](O)[C@H](n1cc(-c3cc(F)c(F)c(F)c3)nn1)[C@H]2O)c1csc2ccc(Br)cc12 [Compound A251, 5-bromo-N-((4R,5S,7R,8R,9S,10R)-8,10-dihydroxy-7-(hydroxymethyl)-9-(4-(3,4,5-trifluorophenyl)-1H-1,2,3-triazol-1-yl)-1,6-dioxaspiro[4.5]decan-4-yl)benzo[b]thiophene-3-carboxamide]"
9,> 75%,"O=C(N[C@@H]1CCO[C@]12O[C@H](CO)[C@H](O)[C@H](n1cc(-c3cc(F)c(F)c(F)c3)nn1)[C@H]2O)c1cccc2ccc(Cl)cc12 [Compound A256, 7-chloro-N-((4R,5S,7R,8R,9S,10R)-8,10-dihydroxy-7-(hydroxymethyl)-9-(4-(3,4,5-trifluorophenyl)-1H-1,2,3-triazol-1-yl)-1,6-dioxaspiro[4.5]decan-4-yl)-1-naphthamide]"

# Same assay, conditions: Table 3, found values; compound at 20 μM; 60 nM his-galectin-3, 15 nM biotin-ASF; read-out: % Inhibitory activity (at 20 μM)
row,inhibition at 20 µM,Compound
1,72.1%,"Cc1ccc2ccccc2c1C(=O)N[C@@H]1CCO[C@]12O[C@H](CO)[C@H](O)[C@H](n1cc(-c3cc(F)c(F)c(F)c3)nn1)[C@H]2O [Compound A240, N-((4R,5S,7R,8R,9S,10R)-8,10-dihydroxy-7-(hydroxymethyl)-9-(4-(3,4,5-trifluorophenyl)-1H-1,2,3-triazol-1-yl)-1,6-dioxaspiro[4.5]decan-4-yl)-2-methyl-1-naphthamide]"
2,89.9%,"O=C(N[C@@H]1CCO[C@]12O[C@H](CO)[C@H](O)[C@H](n1cc(-c3cc(F)c(F)c(F)c3)nn1)[C@H]2O)c1csc2ccc(F)cc12 [Compound A249, N-((4R,5S,7R,8R,9S,10R)-8,10-dihydroxy-7-(hydroxymethyl)-9-(4-(3,4,5-trifluorophenyl)-1H-1,2,3-triazol-1-yl)-1,6-dioxaspiro[4.5]decan-4-yl)-5-fluorobenzo[b]thiophene-3-carboxamide]"
3,39.2%,"CO[C@@H]1[C@@H](n2cc(-c3cc(F)c(F)c(F)c3)nn2)[C@@H](O)[C@@H](CO)O[C@@]12CCCO2 [Compound A257, (5S,7R,8R,9S,10R)-7-(hydroxymethyl)-10-methoxy-9-(4-(3,4,5-trifluorophenyl)-1H-1,2,3-triazol-1-yl)-1,6-dioxaspiro[4.5]decan-8-ol]"

# Reference: patent publication US20250026778A1 (TIUMBIO CO., LTD., priority 2021, published 2025)
